Assay results taken from patent US12391664B2, “GluN2C/D subunit selective antagonists of the N-methyl-D-aspartate receptor” (Emory University, priority 2018, dated 2025).
Like-named read-outs stand apart in the source and are kept apart here.

How the values were obtained:
Format in all cases: cell-based
[1] = molecular target: T1, recombinant rat GluN1/GluN2C (Rattus norvegicus, UniProt P35439+Q00961); test: Two-electrode voltage-clamp recordings in Xenopus laevis oocytes, GluN2C; conditions: oocytes, 100 μM glutamate and 30 μM glycine; read-out: GluN2C IC50
T1 construct: expressed in transfected cells; host or cells: Xenopus laevis oocytes injected with cRNA (GluN1:GluN2 ratio 1:2)
T1 sequence (Q00961 20-1237, other chains not shown): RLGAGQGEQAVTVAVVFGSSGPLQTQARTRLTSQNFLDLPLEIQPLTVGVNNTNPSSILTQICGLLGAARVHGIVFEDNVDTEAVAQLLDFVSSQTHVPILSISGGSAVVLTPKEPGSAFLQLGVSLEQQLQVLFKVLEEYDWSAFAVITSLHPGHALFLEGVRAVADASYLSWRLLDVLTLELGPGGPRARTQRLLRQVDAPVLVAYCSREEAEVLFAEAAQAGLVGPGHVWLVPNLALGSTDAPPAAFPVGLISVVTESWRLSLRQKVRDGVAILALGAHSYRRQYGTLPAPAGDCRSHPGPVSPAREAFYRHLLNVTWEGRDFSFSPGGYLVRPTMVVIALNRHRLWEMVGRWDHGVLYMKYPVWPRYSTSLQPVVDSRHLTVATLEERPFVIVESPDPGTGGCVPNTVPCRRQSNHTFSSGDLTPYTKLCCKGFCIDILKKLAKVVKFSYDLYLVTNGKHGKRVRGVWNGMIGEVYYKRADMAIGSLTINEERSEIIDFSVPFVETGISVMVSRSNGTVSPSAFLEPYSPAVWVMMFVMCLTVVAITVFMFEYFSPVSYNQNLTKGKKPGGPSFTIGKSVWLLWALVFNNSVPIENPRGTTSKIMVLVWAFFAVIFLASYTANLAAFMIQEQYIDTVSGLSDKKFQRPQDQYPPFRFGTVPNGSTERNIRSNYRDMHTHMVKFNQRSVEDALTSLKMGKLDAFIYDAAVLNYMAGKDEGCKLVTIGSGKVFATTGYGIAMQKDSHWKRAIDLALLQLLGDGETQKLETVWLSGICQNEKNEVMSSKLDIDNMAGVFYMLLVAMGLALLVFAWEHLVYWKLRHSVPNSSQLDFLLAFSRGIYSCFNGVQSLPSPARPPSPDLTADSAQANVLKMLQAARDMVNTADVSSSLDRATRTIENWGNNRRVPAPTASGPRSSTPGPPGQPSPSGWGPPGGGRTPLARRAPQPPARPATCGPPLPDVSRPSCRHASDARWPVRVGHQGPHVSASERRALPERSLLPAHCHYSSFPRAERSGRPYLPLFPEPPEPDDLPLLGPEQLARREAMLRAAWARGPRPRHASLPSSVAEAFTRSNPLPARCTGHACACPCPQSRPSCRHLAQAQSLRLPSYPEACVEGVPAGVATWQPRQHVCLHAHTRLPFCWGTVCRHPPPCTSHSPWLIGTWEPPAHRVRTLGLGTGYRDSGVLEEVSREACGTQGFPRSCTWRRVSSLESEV
Description: (§1) All target compounds were evaluated for activity by the Traynelis laboratory at Emory University using two-electrode voltage-clamp recordings performed in Xenopus laevis oocytes expressing recombinant GluN2A-D subunits (Table 1). […] Two ester compounds 997-65 and 997-66 also performed no inhibition at GluN2A to GluN2D receptors. […] Consequently, for the compounds that Acker et al. already published, it was necessary to increase the concentration to 100 μM when collecting data for a concentration effect curve. […] Therefore, under this condition, we can only conclude that compound 997-67 remained potent at GluN2C/D-containing receptors, but its selectivity over GluN2A- and GluN2B-containing receptors could not be compared to 997-57. […] Finally, replacing the carboxylic acid to the bio-isostere amide yielded compounds 997-96 and 997-115, which dropped the potency 2- to 4-fold in comparison to their corresponding acids 997-74 and 997-114.
(§2) Two-electrode voltage-clamp recordings were performed in Xenopus laevis oocytes that were injected with mRNA to express recombinant rat GluN1/GluN2A, GluN1/GluN2B, GluN1/GluN2C, and GluN1/GluN2D. The recordings using unfertilized oocytes from Xenopus laevis were permitted by Emory University Institutional Animal Care and Use Committee (IACUC). An automatic injector (Nanoject II, Drummond Scientific) was used for cRNA injection using the pipettes filled with mineral oil. The cRNA that transcribed in vitro via the mMessage Machine kit (Ambion) was diluted with nuclease-free water, and then injected at GluN1/GluN2 with a ratio of 1:2. The oocytes were stored in Barth's solution that contained 88 mM NaCl, 5.0 mM Tris-HCl, 2.4 mM NaHCO3, 1.0 mM KCl, 0.84 mM MgSO4, 0.41 mM CaCl2, 0.33 mM Ca(NO3)2, 0.1 mg/ml gentamycin sulfate, 1.0 U/ml penicillin, and 1 μg/ml streptomycin at a pH of 7.4 and temperatures of 15-17° C. for two to five days before the two-electrode voltage-clamp recordings. When recording, the oocytes were placed in a perfusion chamber and continually washed with the recording solution comprised of 90 mM NaCl, 1.0 mM KCl, 0.50 mM BaCl2, 0.005 mM EDTA, and 10 mM HEPES at a pH of 7.4 and a temperature of 23° C. Glass electrodes with a tip resistance of 0.5 to 2.5 MΩ were obtained from thin-walled glass capillary tubes. Voltage electrodes and current electrodes were filled with 0.3 M and 3.0 M KCl, respectively. The recordings were executed with the oocytes membrane potential holding at −40 m V by an OC-725 amplifier (Warner Instrument Co). All compounds were dissolved in dimethyl sulfoxide (DMSO) as 20 mM stock solutions and future diluted to reach the desired concentration (0.05-0.5% (vol/vol) DMSO) in recording solution comprised of 30 μM glycine and 100 μM glutamate. Each compound was recorded 3-7 times in the least 4 oocytes from at least 2 different Xenopus laevis.
(§3) To evaluate the inhibition of compounds, the concentration-response curve was fitted with the average two-electrode voltage-clamp recording results with the equation
(§4) [formula] • where IC50 is the concentration of compounds that inhibit half maximal of the current response and N is the Hill slope.

[2] = molecular target: T2, recombinant rat GluN1/GluN2D (Rattus norvegicus, UniProt P35439+Q62645); test: Two-electrode voltage-clamp recordings in Xenopus laevis oocytes, GluN2D
T2 construct: expressed in transfected cells; host or cells: Xenopus laevis oocytes injected with cRNA (GluN1:GluN2 ratio 1:2)
T2 sequence (Q62645 28-1323, other chains not shown): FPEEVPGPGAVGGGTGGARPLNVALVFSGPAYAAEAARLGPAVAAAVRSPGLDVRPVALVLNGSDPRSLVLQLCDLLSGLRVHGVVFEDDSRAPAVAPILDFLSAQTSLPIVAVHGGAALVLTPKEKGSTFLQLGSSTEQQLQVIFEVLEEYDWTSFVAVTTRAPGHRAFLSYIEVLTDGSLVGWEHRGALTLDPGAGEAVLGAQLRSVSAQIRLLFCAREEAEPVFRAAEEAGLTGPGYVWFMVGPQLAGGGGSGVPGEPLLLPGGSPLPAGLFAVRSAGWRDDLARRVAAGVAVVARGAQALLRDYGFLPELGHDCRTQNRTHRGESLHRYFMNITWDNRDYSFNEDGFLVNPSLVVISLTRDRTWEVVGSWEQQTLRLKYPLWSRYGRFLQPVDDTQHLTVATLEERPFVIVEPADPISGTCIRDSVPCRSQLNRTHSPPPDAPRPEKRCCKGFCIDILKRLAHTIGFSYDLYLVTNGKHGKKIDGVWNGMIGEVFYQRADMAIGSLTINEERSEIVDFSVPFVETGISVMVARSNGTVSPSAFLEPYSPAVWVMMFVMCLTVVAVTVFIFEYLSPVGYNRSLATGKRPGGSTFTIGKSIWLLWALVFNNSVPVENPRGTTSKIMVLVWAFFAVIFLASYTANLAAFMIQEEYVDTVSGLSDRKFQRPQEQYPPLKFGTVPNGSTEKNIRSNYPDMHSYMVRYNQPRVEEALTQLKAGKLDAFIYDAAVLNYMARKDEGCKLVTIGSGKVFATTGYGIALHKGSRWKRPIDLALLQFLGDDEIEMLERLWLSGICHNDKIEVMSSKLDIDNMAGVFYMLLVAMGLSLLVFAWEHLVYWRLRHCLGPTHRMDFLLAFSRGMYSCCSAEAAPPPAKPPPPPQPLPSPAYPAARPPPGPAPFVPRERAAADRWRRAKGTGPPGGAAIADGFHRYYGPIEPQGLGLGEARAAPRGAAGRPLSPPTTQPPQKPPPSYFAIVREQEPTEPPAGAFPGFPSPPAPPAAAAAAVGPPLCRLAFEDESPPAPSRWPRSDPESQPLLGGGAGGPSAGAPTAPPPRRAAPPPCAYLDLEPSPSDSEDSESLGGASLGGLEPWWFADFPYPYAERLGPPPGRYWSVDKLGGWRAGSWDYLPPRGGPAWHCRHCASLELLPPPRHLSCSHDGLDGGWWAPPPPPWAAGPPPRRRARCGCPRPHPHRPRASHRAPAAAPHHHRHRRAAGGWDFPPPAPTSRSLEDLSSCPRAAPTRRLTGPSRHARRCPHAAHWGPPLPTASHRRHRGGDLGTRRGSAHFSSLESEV
Description: as §1, §2, §3, §4

[3] = molecular target: T3, recombinant rat GluN1/GluN2A (Rattus norvegicus, UniProt Q00959); test: Two-electrode voltage-clamp recordings in Xenopus laevis oocytes, GluN2A; conditions: oocytes, 100 μM glutamate and 30 μM glycine
T3 construct: expressed in transfected cells; host or cells: Xenopus laevis oocytes injected with cRNA (GluN1:GluN2 ratio 1:2)
T3 sequence (Q00959 23-1464, other chains not shown): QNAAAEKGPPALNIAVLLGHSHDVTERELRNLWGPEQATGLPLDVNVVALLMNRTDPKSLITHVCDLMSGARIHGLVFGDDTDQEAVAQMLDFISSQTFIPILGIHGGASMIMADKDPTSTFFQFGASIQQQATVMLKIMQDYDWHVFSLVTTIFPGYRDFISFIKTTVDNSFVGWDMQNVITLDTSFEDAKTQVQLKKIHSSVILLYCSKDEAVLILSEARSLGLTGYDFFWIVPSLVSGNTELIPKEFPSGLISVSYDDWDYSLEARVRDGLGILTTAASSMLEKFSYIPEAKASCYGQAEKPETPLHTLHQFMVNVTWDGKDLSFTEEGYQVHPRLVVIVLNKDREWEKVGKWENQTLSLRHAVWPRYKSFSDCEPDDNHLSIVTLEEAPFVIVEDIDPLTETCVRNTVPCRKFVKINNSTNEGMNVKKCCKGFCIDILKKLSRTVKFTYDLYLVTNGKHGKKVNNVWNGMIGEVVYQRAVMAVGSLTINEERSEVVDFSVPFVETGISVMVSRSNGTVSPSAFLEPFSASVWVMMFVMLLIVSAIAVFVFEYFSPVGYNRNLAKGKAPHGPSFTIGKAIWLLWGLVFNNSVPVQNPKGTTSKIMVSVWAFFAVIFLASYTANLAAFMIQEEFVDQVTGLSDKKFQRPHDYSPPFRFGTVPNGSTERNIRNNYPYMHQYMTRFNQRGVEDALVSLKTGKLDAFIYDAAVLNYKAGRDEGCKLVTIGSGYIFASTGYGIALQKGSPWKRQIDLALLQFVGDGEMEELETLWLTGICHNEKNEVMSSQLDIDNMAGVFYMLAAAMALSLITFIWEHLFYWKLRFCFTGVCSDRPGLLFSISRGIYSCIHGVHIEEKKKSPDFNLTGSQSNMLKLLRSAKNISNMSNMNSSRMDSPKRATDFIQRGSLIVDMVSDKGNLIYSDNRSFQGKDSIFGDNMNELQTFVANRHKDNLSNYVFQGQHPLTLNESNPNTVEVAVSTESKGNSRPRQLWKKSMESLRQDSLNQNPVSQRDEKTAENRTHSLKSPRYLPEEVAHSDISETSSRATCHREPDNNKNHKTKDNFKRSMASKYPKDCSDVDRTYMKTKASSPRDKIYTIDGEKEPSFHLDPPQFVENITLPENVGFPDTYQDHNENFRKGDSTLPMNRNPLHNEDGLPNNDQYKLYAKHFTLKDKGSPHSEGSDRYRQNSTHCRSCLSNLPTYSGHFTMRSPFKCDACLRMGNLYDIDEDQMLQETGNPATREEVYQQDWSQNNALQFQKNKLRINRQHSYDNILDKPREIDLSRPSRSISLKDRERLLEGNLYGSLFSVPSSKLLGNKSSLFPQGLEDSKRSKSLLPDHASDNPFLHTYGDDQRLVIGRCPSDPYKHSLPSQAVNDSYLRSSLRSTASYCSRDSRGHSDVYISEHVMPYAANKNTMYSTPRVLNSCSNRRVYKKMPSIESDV
Description: as §1, §2, §3, §4

[4] = molecular target: T4, recombinant rat GluN1/GluN2B (Rattus norvegicus, UniProt Q00960); test: Two-electrode voltage-clamp recordings in Xenopus laevis oocytes, GluN2B; conditions: oocytes, 100 μM glutamate and 30 μM glycine
T4 construct: expressed in transfected cells; host or cells: Xenopus laevis oocytes injected with cRNA (GluN1:GluN2 ratio 1:2)
Description: as §1, §2, §3, §4

[5] = molecular target: T5, recombinant rat GluN1/GluN2D (Rattus norvegicus, UniProt Q62645); test: Two-electrode voltage-clamp recordings in Xenopus laevis oocytes, GluN2D
T5 construct: expressed in transfected cells; host or cells: Xenopus laevis oocytes injected with cRNA (GluN1:GluN2 ratio 1:2)
T5 sequence (Q62645 28-1323, other chains not shown): as the sequence (Q62645 28-1323, other chains not shown) above
Description: as §1, §2, §3, §4

[6] = molecular target: T6, recombinant rat GluN1/GluN2B (Rattus norvegicus, UniProt P35439+Q00960); test: Two-electrode voltage-clamp recordings in Xenopus laevis oocytes, GluN2B; conditions: oocytes, 100 μM glutamate and 30 μM glycine
T6 construct: expressed in transfected cells; host or cells: Xenopus laevis oocytes injected with cRNA (GluN1:GluN2 ratio 1:2)
Description: as §1, §2, §3, §4

[7] = GluN2C and GluN2D receptors, read-out: IC50 values at GluN2C and GluN2D receptors, range over the alcohol compounds
[8] = oocytes, 100 μM glutamate and 30 μM glycine, read-out: GluN2D IC50

Structure (SMILES)	IC50 [1]	IC50 [2, 7]	IC50 [2, 8]	GluN2A IC50 [3]	GluN2B IC50 [4]	IC50 ([2]; read-out: IC50 at GluN2D-containing receptors)	GluN2A IC50 ([3]; listed as 98)	GluN2B IC50 ([4]; listed as 98)	2A IC50 / 2D IC50 ([5]; ratio of IC50 values)	2B IC50 / 2D IC50 ([5]; ratio of IC50 values)	IC50 [6]	fold decrease of activity in comparison to 997-95 ([5]; comparator 997-95)
O=C(CC(F)(F)CO)N1N=C(c2c(-c3cccc(F)c3)c3ccccc3[nH]c2=O)CC1c1ccc(Cl)cc1 (stereo not drawn) [997-68, 3-[5-(4-chlorophenyl)-1-(3,3-difluoro-4-hydroxybutanoyl)-4,5-dihydro-1H-pyrazol-3-yl]-4-(3-fluorophenyl)quinolin-2(1H)-one]	4.3 µM	0.8 to 2 µM	1.4 µM	NE (NE indicates less than 50% inhibition at 30 μM.)	NE (NE indicates less than 50% inhibition at 30 μM.)							
O=C(O)CCC(=O)N1N=C(c2ccccc2-c2ccc(Cl)cc2)CC1c1ccc(Cl)cc1 (stereo not drawn) [997-99, 4-(3-(4′-chloro-[1,1′-biphenyl]-2-yl)-5-(4-chlorophenyl)-4,5-dihydro-1H-pyrazol-1-yl)-4-oxobutanoic acid]	16 µM		12 µM	NE (NE indicates less than 50% inhibition at 30 μM.)	NE (NE indicates less than 50% inhibition at 30 μM.)							
NC(=O)C(F)(F)CC(=O)N1N=C(c2c(-c3ccc(Cl)cc3)c3ccccc3[nH]c2=O)CC1c1ccc(Cl)cc1 (stereo not drawn) [997-115, 4-(5-(4-chlorophenyl)-3-(4-(4-chlorophenyl)-2-oxo-1,2-dihydroquinolin-3-yl)-4,5-dihydro-1H-pyrazol-1-yl)-2,2-difluoro-4-oxobutanamide]	1.44 µM		0.343 µM	NE (NE indicates less than 50% inhibition at 30 μM.)	NE (NE indicates less than 50% inhibition at 30 μM.)							
O=C(N1N=C(c2c(-c3ccc(Cl)cc3)c3ccccc3[nH]c2=O)CC1c1ccc(Cl)cc1)C(F)(F)CCO (stereo not drawn) [997-75, 4-(4-chlorophenyl)-3-[5-(4-chlorophenyl)-1-(2,2-difluoro-4-hydroxybutanoyl)-4,5-dihydro-1H-pyrazol-3-yl]quinolin-2(1H)-one]	17 µM	0.8 to 2 µM	2 µM	NE (NE indicates less than 50% inhibition at 30 μM.)	NE (NE indicates less than 50% inhibition at 30 μM.)							
O=C(CC(F)(F)CO)N1N=C(c2c(-c3ccc(Cl)cc3)c3ccccc3[nH]c2=O)CC1c1ccc(Cl)cc1 (stereo not drawn) [997-67, 4-(4-chlorophenyl)-3-[5-(4-chlorophenyl)-1-(3,3-difluoro-4-hydroxybutanoyl)-4,5-dihydro-1H-pyrazol-3-yl]quinolin-2(1H)-one]		0.8 to 2 µM		NE (NE indicates less than 50% inhibition at 30 μM.)	NE (NE indicates less than 50% inhibition at 30 μM.)							
O=C(O)CC(F)(F)C(=O)N1N=C(c2c(-c3ccc(Cl)cc3)c3ccccc3[nH]c2=S)CC1c1ccc(Cl)cc1 (stereo not drawn) [997-98, 4-(5-(4-chlorophenyl)-3-(4-(4-chlorophenyl)-2-thioxo-1,2-dihydroquinolin-3-yl)-4,5-dihydro-1H-pyrazol-1-yl)-3,3-difluoro-4-oxobutanoic acid]	0.44 µM			inactive	inactive	0.14 µM	NE (NE indicates less than 50% inhibition at 30 μM.)	NE (NE indicates less than 50% inhibition at 30 μM.)				
O=C(O)CC(F)(F)C(=O)N1N=C(c2ccccc2-c2ccc(Cl)cc2)CC1c1ccc(Cl)cc1 (stereo not drawn) [997-95, 4-(3-(4′-chloro-[1,1′-biphenyl]-2-yl)-5-(4-chlorophenyl)-4,5-dihydro-1H-pyrazol-1-yl)-3,3-difluoro-4-oxobutanoic acid]	4.8 µM		6.2 µM						5	1	6.4 µM	
O=C(O)CCC(=O)N1N=C(c2c(-c3ccncc3)c3ccccc3[nH]c2=O)CC1c1ccc(Cl)cc1 (stereo not drawn) [997-82, 4-(5-(4-chlorophenyl)-3-(2-oxo-4-(pyridin-4-yl)-1,2-dihydroquinolin-3-yl)-4,5-dihydro-1H-pyrazol-1-yl)-4-oxobutanoic acid]				NE (NE indicates less than 50% inhibition at 30 μM.)	NE (NE indicates less than 50% inhibition at 30 μM.)							
Cc1ccc2[nH]c(=O)c(C3=NN(C(=O)CC(F)(F)CO)C(c4ccc(Cl)cc4)C3)c(-c3ccc(Cl)cc3)c2c1 (stereo not drawn) [997-91, 4-(4-chlorophenyl)-3-[5-(4-chlorophenyl)-1-(3,3-difluoro-4-hydroxybutanoyl)-4,5-dihydro-1H-pyrazol-3-yl]-6-methylquinolin-2(1H)-one]	7.1 µM		4.4 µM	NE (NE indicates less than 50% inhibition at 30 μM.)	NE (NE indicates less than 50% inhibition at 30 μM.)							
O=C(O)CC(F)(F)C(=O)N1N=C(c2c(-c3ccc(F)cc3)c3ccccc3[nH]c2=O)CC1c1ccc(F)cc1 (stereo not drawn) [997-103, 3,3-difluoro-4-(5-(4-fluorophenyl)-3-(4-(4-fluorophenyl)-2-oxo-1,2-dihydroquinolin-3-yl)-4,5-dihydro-1H-pyrazol-1-yl)-4-oxobutanoic acid]	7 µM		3.1 µM	NE (NE indicates less than 50% inhibition at 30 μM.)	NE (NE indicates less than 50% inhibition at 30 μM.)							
O=C(O)CCC(=O)N1N=C(c2c(-c3ccc(F)cc3)c3ccccc3[nH]c2=O)CC1c1ccc(F)cc1 (stereo not drawn) [997-105, 4-(5-(4-fluorophenyl)-3-(4-(4-fluorophenyl)-2-oxo-1,2-dihydroquinolin-3-yl)-4,5-dihydro-1H-pyrazol-1-yl)-4-oxobutanoic acid]	6.7 µM		5.1 µM	NE (NE indicates less than 50% inhibition at 30 μM.)	NE (NE indicates less than 50% inhibition at 30 μM.)							
O=C(O)CC(F)(F)C(=O)N1N=C(c2ccccc2-c2ccc(F)cc2F)CC1c1ccc(Cl)cc1 (stereo not drawn) [997-121, 4-(5-(4-chlorophenyl)-3-(2′,4′-difluoro-[1,1′-biphenyl]-2-yl)-4,5-dihydro-1H-pyrazol-1-yl)-3,3-difluoro-4-oxobutanoic acid]	13.5 µM		12.3 µM	NE (NE indicates less than 50% inhibition at 30 μM.)	NE (NE indicates less than 50% inhibition at 30 μM.)							2 fold
